The target of data set [1] is T1, Tyrosine-protein phosphatase non-receptor type 11 (Homo sapiens, UniProt Q06124).
T1 sequence (Q06124 whole entry): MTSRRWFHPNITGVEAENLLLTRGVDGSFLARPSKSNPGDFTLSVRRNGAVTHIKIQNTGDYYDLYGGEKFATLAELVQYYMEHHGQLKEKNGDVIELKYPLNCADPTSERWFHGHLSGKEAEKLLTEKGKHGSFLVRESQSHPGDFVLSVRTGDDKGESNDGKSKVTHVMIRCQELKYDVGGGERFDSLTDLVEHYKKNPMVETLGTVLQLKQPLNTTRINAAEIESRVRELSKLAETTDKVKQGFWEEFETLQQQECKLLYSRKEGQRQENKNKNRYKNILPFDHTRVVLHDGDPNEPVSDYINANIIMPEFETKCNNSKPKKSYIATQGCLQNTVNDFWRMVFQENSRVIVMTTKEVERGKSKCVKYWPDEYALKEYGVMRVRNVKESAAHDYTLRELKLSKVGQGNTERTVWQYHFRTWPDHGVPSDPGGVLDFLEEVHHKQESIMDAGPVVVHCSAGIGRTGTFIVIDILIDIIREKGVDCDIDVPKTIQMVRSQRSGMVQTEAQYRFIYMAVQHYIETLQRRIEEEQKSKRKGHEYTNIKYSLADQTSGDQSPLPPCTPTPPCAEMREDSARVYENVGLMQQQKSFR
The data set is described as follows: Allosteric inhibition of IRS1 peptide-activated human recombinant SHP2 (Met1 to Leu525) expressed in Escherichia coli assessed as inhibition of dephosphorylation of 6,8-difluoro-4-methylumbelliferyl phosphate using DiFMUP as substrate preincubated with enzyme for 30 mins followed by substrate addition and measured after 30 mins by DiFMUP assay.

A short description of data set [2]: Kinetic solubility of the compound in phosphate buffer saline at pH 7.4 at 200 uM by LC-UV analysis. In kind it is physicochemical. The settings on record: read-out: Kinetic_solubility.
Data set [3] in a line: Drug metabolism in human liver microsomes assessed as 1'-(6-((2-(trifluoromethyl)pyridin-3-yl)sulfonyl)-1H-imidazo[4,5-b]pyrazin-2-yl)-1,3-dihydrospiro[indene-2,4'-piperidin]-1-amine formation at 1 uM measured after 60 mins in presence of NADPH by MetID study analysis. The class given is ADME, Microsome.
Data set [4] deals with T1, Tyrosine-protein phosphatase non-receptor type 11. The data set is described as follows: Allosteric inhibition of SHP2 in human KYSE-520 cells assessed as inhibition of ERK phosphorylation incubated for 2 hrs by TR-FRET assay. The class given is cell-based, KYSE-520 cell line. (Time-resolved FRET reads energy transfer from a long-lived donor to a nearby acceptor.)
A short description of data set [5]: Drug metabolism in C57BL/6 mouse liver microsomes assessed as 1'-(6-((2-(trifluoromethyl)pyridin-3-yl)sulfonyl)-1H-imidazo[4,5-b]pyrazin-2-yl)-1,3-dihydrospiro[indene-2,4'-piperidin]-1-amine formation at 1 uM measured after 60 mins in presence of NADPH by MetID study analysis. The class given is ADME, Microsome.
The nature of data set [6]: Drug metabolism in C57BL/6 mouse liver microsomes assessed as oxidised metabolite formation at 1 uM measured after 60 mins in presence of NADPH by MetID study analysis. The class given is ADME, Microsome. Particulars: 1 h.
The nature of data set [7]: Half life in Sprague-Dawley rat at 0.5 mg/kg, iv measured for 24 hrs by LC-MS/MS analysis. In kind it is ADME, organism-based. Particulars: in vivo.
Data set [8] relates to KYSE-520 cell line. Nature of the data set: Antiproliferative activity against EGFR-amplified human KYSE-520 cells assessed as inhibition of cell proliferation incubated for 72 hrs by CellTiter-Glo reagent based luminescence assay. In kind it is functional. The settings on record: KYSE-520, 72 h.
Data set [9] can be described thus: Apparent passive permeability of the compound in phosphate buffer saline at pH 7.4 at 5 uM incubated for 4 hrs by PAMPA assay. The class given is ADME. On the technique in general: In PAMPA a lipid-coated filter parts donor from acceptor wells.
Data set [10] in a line: Volume of distribution at steady state in Sprague-Dawley rat at 0.5 mg/kg, iv measured for 24 hrs by LC-MS/MS analysis. In kind it is ADME, organism-based. Particulars: in vivo, read-out: Vdss.
The target in data set [11] is Voltage-gated inwardly rectifying potassium channel KCNH2 (Homo sapiens, UniProt Q12809). Nature of the data set: Displacement of E-4031 from hERG by fluorescence polarization assay. The class given is toxicity. A general note: The hERG channel carries a current that helps repolarise heart muscle cells.
Sequence of Voltage-gated inwardly rectifying potassium channel KCNH2 (Q12809 whole entry, the tested form may be a part): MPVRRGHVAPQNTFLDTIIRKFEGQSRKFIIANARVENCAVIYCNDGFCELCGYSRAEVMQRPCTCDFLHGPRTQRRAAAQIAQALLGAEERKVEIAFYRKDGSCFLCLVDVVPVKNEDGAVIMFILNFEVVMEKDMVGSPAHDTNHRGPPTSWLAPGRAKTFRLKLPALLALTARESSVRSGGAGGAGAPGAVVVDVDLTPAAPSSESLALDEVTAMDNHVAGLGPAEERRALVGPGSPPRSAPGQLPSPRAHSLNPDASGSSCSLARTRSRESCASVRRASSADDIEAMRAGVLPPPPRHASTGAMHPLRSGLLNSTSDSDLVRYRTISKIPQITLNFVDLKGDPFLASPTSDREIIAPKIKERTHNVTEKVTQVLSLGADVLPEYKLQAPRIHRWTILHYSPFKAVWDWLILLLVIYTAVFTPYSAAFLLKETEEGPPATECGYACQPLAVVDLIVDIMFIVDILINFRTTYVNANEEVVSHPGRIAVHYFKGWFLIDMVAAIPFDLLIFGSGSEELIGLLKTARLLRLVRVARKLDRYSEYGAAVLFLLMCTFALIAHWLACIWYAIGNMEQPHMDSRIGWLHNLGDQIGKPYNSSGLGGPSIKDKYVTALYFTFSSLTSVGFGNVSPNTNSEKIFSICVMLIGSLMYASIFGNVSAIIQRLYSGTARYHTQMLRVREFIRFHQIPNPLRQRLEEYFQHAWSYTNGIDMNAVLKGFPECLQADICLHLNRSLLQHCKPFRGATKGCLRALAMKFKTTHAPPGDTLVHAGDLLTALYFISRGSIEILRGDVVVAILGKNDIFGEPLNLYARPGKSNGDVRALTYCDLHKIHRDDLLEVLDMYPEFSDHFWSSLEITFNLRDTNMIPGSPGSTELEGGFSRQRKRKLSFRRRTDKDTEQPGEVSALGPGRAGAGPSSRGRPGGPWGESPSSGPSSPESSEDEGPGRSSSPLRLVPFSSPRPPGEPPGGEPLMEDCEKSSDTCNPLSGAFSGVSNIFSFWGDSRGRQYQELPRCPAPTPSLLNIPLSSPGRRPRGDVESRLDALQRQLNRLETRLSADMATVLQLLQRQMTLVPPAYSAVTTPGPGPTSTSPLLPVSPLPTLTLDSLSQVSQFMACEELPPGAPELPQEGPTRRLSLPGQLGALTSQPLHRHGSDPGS
For data set [12], the target named is T1, Tyrosine-protein phosphatase non-receptor type 11. Nature of the data set: Binding affinity to N-terminal biotinylated AviTag-G4SG4S-tagged recombinant SHP2 (1 to 525 residues) (unknown origin) by SPR analysis.
The nature of data set [13]: Intrinsic clearance in C57BL/6 mouse liver microsomes at 1 uM measured for 60 mins in presence of NADPH by LC-MS/MS analysis. The class given is ADME, Microsome. The settings on record: read-out: CLH.
Data set [14] can be described thus: Intrinsic clearance in Sprague-Dawley rat at 0.5 mg/kg, iv measured for 24 hrs by LC-MS/MS analysis. In kind it is ADME, organism-based. The settings on record: in vivo.
A short description of data set [15]: Intrinsic clearance in human liver microsomes at 1 uM measured for 60 mins in presence of NADPH by LC-MS/MS analysis. In kind it is ADME, Microsome. Particulars: read-out: CLH.
Data set [16] is described as follows: Drug metabolism in human liver microsomes assessed as oxidised metabolite formation at 1 uM measured after 60 mins in presence of NADPH by MetID study analysis. In kind it is ADME, Microsome. Particulars: 1 h.
Data set [17] in a line: Volume of distribution at steady state in BALB/c mouse at 1 mg/kg, iv measured for 24 hrs by LC-MS/MS analysis. In kind it is ADME, organism-based. Particulars: in vivo, read-out: Vdss.
The nature of data set [18]: Intrinsic clearance in BALB/c mouse at 1 mg/kg, iv measured for 24 hrs by LC-MS/MS analysis. The class given is ADME, organism-based. The settings on record: in vivo.
A short description of data set [19]: Oral bioavailability in BALB/c mouse at 50 mg/kg measured for 24 hrs by LC-MS/MS analysis. In kind it is ADME, organism-based. The settings on record: in vivo.
Data set [20] is described as follows: Half life in BALB/c mouse at 1 mg/kg, iv measured for 24 hrs by LC-MS/MS analysis. In kind it is ADME, organism-based. The settings on record: in vivo.

The results in this text go back to ChEMBL document CHEMBL5223191, “Discovery of a Novel Series of Imidazopyrazine Derivatives as Potent SHP2 Allosteric Inhibitors” (ACS Med Chem Lett, 2023).

Molecules are shown by their SMILES. pEC50, pIC50, pKd: −log10 of the molar value. Converted amounts (≈) assume the structure as drawn. Where only a bound is given, the exact number is not on record here.

In general, pIC50 refers to the IC50 on a negative log10 scale, so that one unit is a factor of ten. On to `NC1CCCN(c2nc3nc(Sc4cccnc4C(F)(F)F)cnc3[nH]2)C1` (stereo unspecified), for which the pIC50 in data set [1] was 6.36.
The same measure, in the same setting: the result for `Cn1c(N2CCC(C)(N)CC2)nc2ncc(Sc3cccnc3C(F)(F)F)nc21` reads 5.87; that for `CC1(N)CCN(c2cnc(Sc3cccnc3C(F)(F)F)c(N)n2)CC1`, 6.85; that for `CC1(N)CCN(c2nc3cnc(Sc4cccnc4C(F)(F)F)nc3[nH]2)CC1`, 6.09.
Still for that read-out and setting: the result for `Cc1nc2nc(N3CCC(C)(N)CC3)[nH]c2nc1Sc1cccc(Cl)c1Cl` reads 6.36; that for `CNC1CCN(c2nc3nc(Sc4cccnc4C(F)(F)F)cnc3[nH]2)CC1`, 5.93.
Regarding `NC1CCN(c2nc3nc(Sc4cccnc4C(F)(F)F)cnc3[nH]2)CC1`, the pIC50 in data set [1] is 6.18.
Regarding `CC1(N)CCN(c2nc3ncc(Oc4cccc(Cl)c4Cl)nc3[nH]2)CC1`, the pIC50 in data set [1] is 6.28.
On the same count and under the same terms, the result for `Cn1c(N2CCC(C)(N)CC2)nc2nc(Sc3cccnc3C(F)(F)F)cnc21` reads 6.39.
Still for that read-out and setting: for `CC1(N)CCN(c2nc3ncc(Sc4cccnc4C(F)(F)F)nc3s2)CC1` the value was < 4.19.
The same measure, in the same setting: for `CC1(N)CCN(c2nc3ncc(-c4cccc(Cl)c4Cl)nc3[nH]2)CC1` the value was 6.10.
In general, pEC50 refers to the EC50 on a negative log10 scale, so that one unit is a factor of ten. For orientation: half-life means how long it takes for the measured level to halve. The low end stands for rapid decline, the high end for slow decline. Usually Papp stands for the rate of passage across a membrane or cell layer, normalised by area and donor concentration. Usually pKd stands for −log10 of the Kd, conventionally taken in molar units. On to `N[C@@H]1c2ccccc2CC12CCN(c1nc3nc(Sc4cccnc4C(F)(F)F)cnc3[nH]1)CC2`, for which the pIC50 in [1] was 8.30; in [11], 5.74. In data set [2], the solubility kinetic at 200 µM amounted to 154 µM (≈ 76.6 µg/mL). Besides, the Drug metabolism result in data set [3], in data set [5], in data set [6] and in data set [16] was “Metabolite_Detected” throughout. Moreover, the pEC50 in [4] is 7.38; in [8], 6.26. This compound had a half-life in data set [7] of 24 min. In data set [9], the Papp at 4 h, 5 µM was determined as 0.027 ×10⁻⁶ cm/s. Moreover, the Vd in data set [10] came out at 0.4 L/kg. The pKd in data set [12] was 9.22. Moreover, the CLint scaled at 1 µM in data set [13] turned out to be 297 mL/min/kg; in data set [15], 74 mL/min/kg. Moreover, in data set [14], the CL was determined as 24 mL/min/kg.
As for `CC1(N)CCN(c2nc3ncc(Sc4cccnc4C(F)(F)F)cc3[nH]2)CC1`, the pIC50 in data set [1] was < 4.48.
As to `Nc1nccc(Sc2cnc3[nH]c(N4CCC5(CC4)Cc4ccccc4[C@H]5N)nc3n2)c1Cl`, the pIC50 in data set [1] was 8.40; in data set [11], 6.05. Also, the values for the pEC50 in data set [4] and in data set [8] were 7.12 and 6.22, respectively.
Turning to `N[C@@H]1CCCC12CCN(c1nc3nc(Sc4cccnc4C(F)(F)F)cnc3[nH]1)CC2`, in data set [1], the pIC50 is 6.54.
For the compound `CC1(N)CCN(c2nc3ncc(Sc4cccnc4C(F)(F)F)nc3[nH]2)CC1`, the pIC50 in data set [1] is 7.13. Also, the pEC50 in data set [4] is 5.75.
With `CC1(N)CCN(c2nc3nc(Sc4cccnc4C(F)(F)F)cnc3s2)CC1`, in [1], the pIC50 is 6.05.
Usually bioavailability stands for dose-corrected exposure relative to a reference, in per cent. A higher bioavailability goes with good availability. For `CNc1nccc(Sc2cnc3[nH]c(N4CCC5(CC4)Cc4ccccc4[C@H]5N)nc3n2)c1Cl`, the values for the Vd in data set [17] and in [10] were 1.8 L/kg and 1.9 L/kg, respectively. Moreover, the pIC50 in [1] is 8.22; in [11] it was 5.38. Moreover, the pEC50 is 7.43 in data set [4] and 6.28 in [8]. For the same compound, the half-life is > 138 min in data set [7] and > 240 min in data set [20]. Further, the Papp at 4 h, 5 µM in data set [9] was 0.02 ×10⁻⁶ cm/s. The CL came out at 14 mL/min/kg in [18] and 17 mL/min/kg in [14]. In data set [19], the bioavailability worked out at 7%.
Regarding `C[C@@H]1OCC2(CCN(c3nc4nc(Sc5cccnc5C(F)(F)F)cnc4[nH]3)CC2)[C@@H]1N`, in data set [1], the pIC50 was 7.19. The pEC50 in [4] was 5.55.
For the compound `CC1(N)CCN(c2nc3ncc(Sc4cccc(Cl)c4Cl)nc3[nH]2)CC1`, the pIC50 in data set [1] is 7.33.
As to `N[C@@H]1c2ccccc2CC12CCN(c1nc3nc(Sc4ccncc4Cl)cnc3[nH]1)CC2`, the pIC50 is 8.52 in data set [1] and 5.51 in data set [11]. Moreover, the figures for the pEC50 in data set [4] and in data set [8] were 7.29 and 6.49, respectively.
On to `CC1(N)CCN(c2nc3ccc(Sc4cccnc4C(F)(F)F)cc3[nH]2)CC1`, for which the pIC50 in [1] was < 4.80.
